Results from ChEMBL document CHEMBL1140805, “1-Toluene-sulfonyl-3-[(3'-hydroxy-5'-substituted)-gamma-butyrolactone]-indoles: synthesis, COX-2 inhibition and anti-cancer activities” (Bioorg Med Chem Lett, 2008).

Legend:
[1] = target: T1, Prostaglandin G/H synthase 1 (Ovis aries) (UniProt P05979); assay: Inhibition of ovine COX1 at 10 uM
T1 sequence (whole entry): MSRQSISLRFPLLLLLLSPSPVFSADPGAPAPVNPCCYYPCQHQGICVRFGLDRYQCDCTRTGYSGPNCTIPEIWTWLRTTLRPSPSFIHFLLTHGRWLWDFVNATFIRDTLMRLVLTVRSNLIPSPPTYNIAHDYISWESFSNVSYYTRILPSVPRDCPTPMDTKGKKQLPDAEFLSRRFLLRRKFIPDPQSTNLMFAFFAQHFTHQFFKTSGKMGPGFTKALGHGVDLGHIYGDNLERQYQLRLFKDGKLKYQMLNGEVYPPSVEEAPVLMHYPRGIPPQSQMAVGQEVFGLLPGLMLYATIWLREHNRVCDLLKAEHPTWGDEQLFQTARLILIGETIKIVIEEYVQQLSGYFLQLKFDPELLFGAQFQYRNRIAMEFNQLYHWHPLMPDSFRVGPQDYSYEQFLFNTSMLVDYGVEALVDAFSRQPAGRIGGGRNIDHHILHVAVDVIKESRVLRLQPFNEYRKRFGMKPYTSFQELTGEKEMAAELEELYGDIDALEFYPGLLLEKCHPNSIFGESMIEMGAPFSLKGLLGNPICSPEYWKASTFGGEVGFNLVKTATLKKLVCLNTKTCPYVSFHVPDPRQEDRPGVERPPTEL

[2] = organism: Ovis aries; assay: Selectivity index, Ratio of IC50 for ovine COX2 to IC50 for ovine COX1
[3] = Partition coefficient, log P of the compound; assay type: physicochemical; conditions: octanol/water
[4] = target: T2, Prostaglandin G/H synthase 1 (Ovis aries, UniProt P05979)
T2 sequence (P05979 whole entry): T1 sequence (whole entry)

Row | SMILES | inhibition [1] [%] | Ratio IC50 [2] | logP [3] | IC50 [4] [µM]
1 | CS(=O)(=O)c1ccc(C2=C(c3ccccc3)C(=O)OC2)cc1 | 75 | – | – | –
2 | Cc1ccc(S(=O)(=O)n2cc([C@@]3(O)C[C@H](CSC#N)OC3=O)c3ccccc32)cc1 | 65 | > 1000 | 1.78 | < 10
3 | CCSC[C@H]1C[C@](O)(c2cn(S(=O)(=O)c3ccc(C)cc3)c3ccccc23)C(=O)O1 | 35 | < 1000 | 2.38 | > 10
4 | Cc1ccc(S(=O)(=O)n2cc([C@@]3(O)C[C@H](CI)OC3=O)c3ccccc32)cc1 | 40 | – | 2.49 | > 10
